One data set has as its target T1, mouse EP1 (Mus musculus, UniProt P35375).
T1 construct: expressed in transfected cells; host or cells: CHO cells, membrane fraction
T1 sequence (P35375 1-405): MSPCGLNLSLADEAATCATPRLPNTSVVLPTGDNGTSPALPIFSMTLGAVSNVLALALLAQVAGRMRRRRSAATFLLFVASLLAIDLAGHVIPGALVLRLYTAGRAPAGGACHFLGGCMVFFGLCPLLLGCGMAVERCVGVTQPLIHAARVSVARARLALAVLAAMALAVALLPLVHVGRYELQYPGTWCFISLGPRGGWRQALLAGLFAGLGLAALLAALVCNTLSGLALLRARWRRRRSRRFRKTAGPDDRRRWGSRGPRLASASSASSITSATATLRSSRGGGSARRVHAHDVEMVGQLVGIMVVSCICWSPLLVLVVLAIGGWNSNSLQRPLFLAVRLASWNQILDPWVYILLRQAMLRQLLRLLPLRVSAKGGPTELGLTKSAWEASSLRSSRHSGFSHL
Kind of data set: Binding assay using CHO cell membrane expressing prostanoid receptor subtype, [3H]-PGE2 competition. To be noted: CHO cell membrane fraction, 2.5 nM [3H]-PGE2, 1 hour at room temperature, pH6.0. The procedure:
(§1) For example, in a standard laboratory test, such effects of the compound of the present invention were confirmed by binding assay using cell expressing the prostanoid receptor subtypes. (i) Binding assay using cell expressing the prostanoid receptor subtypes The preparation of membrane fraction was carried out according to the method of Sugimoto et al (J. Biol. Chem., 267, 6463-6466 (1992)), using CHO cell expressing prostanoid receptor subtype (mouse EP1, EP2, EP3, and EP4, and human IP).
(§2) The reaction solution (200 μl) containing membrane fraction (0.5 mg/ml), [^3H]-PGE2 was incubated for 1 hour at room temperature. The reaction was terminated by addition of 3 ml of ice-cold buffer. The mixture was rapidly filtered under reduced pressure through a glass filter (GF/B). The radioactivity associated with the filter was measured by liquid scintillation counter.
(§3) Kd and Bmax values were determined from Scatchard plots [Ann. N.Y. Acad. Sci., 51, 660 (1949)]. Non-specific binding was calculated as the amount bound in the presence of an excess (2.5 μM) of unlabeled PGE2. In the experiment for competition of specific [^3H]-PGE2 binding by the compounds of the present invention, [^3H]-PGE2 was added at a concentration of 2.5 nM and the compound of the present invention was added at various concentrations. The following buffer was used in all reactions. Buffer: 10 mM potassium phosphate (pH6.0), 1 mM EDTA, 10 mM MgCl2, 0.1 M NaCl
(§4) The dissociation constant Ki (μM) of each compound was calculated by the following equation.

Another data set has as its target T2, mouse EP4 (Mus musculus, UniProt P32240).
T2 construct: expressed in transfected cells; host or cells: CHO cells, membrane fraction
Described as above. To be noted: CHO cell membrane fraction, 2.5 nM [3H]-PGE2, 1 hour at room temperature, pH6.0. The procedure:
as §1, §2, §3, §4

A further data set deals with T3, EP3α (Mus musculus, UniProt P30557).
T3 construct: expressed in transfected cells; host or cells: CHO cells, membrane fraction
T3 sequence (P30557 1-365): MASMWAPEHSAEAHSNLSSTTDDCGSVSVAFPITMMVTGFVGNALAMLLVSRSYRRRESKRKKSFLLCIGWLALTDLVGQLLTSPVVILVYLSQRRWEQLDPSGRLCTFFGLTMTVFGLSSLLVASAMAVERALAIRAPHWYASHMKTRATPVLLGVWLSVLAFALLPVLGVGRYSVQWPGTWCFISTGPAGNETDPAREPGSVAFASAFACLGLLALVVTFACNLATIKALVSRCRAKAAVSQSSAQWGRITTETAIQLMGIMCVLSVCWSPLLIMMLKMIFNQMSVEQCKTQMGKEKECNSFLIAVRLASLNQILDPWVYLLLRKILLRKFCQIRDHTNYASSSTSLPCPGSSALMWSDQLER
The description is as above. Particulars: CHO cell membrane fraction, 2.5 nM [3H]-PGE2, 1 hour at room temperature, pH6.0. The procedure: as §1, §2, §3, §4

For the next data set, the system named is rat. Put plainly: Toxicity: maximum tolerance dose by i.v. route in rat. Type of data set: in vivo. Here is the method: The toxicity of the compounds of the formula (I) of the present invention is very low and therefore, it is confirmed that these compounds are safe for use as medicine. For example, the maximum tolerance dose of the compound of Example 1 by i.v. route in rat was 30 mg/kg body weight or more.

A value given as a limit tells only on which side of the number the result lay.

T2 sequence (P32240 whole entry): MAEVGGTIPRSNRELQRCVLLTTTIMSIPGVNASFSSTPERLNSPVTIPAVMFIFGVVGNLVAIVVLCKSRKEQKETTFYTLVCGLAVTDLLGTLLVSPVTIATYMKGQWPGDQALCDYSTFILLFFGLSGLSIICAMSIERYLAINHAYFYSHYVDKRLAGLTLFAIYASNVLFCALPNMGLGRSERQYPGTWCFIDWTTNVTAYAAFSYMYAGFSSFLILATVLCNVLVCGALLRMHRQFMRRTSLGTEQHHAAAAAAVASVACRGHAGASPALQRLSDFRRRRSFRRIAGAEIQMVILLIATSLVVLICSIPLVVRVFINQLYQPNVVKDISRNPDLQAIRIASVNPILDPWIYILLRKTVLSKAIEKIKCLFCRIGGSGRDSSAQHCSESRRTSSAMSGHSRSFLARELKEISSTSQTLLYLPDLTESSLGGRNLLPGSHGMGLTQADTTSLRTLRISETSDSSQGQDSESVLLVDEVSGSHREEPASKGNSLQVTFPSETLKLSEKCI

In general, Ki refers to the dissociation constant of the complex between target and ligand, obtained from inhibition or displacement. In the case of `COCc1cccc(C[C@H](O)CC[C@H]2[C@H](O)CC(=O)[C@@H]2CCSCCCC(=O)O)c1` [Example 6, (11α,15α)-9-oxo-11,15-Dihydroxy-16-(3-methoxymethylphenyl)-17,18,19,20-tetranor-5-thiaprostanoic Acid], the Ki on mouse EP1 was over 10000 nM; on mouse EP4, 6.2 nM; on EP3α, 460 nM.

In the data set with rat, `COCc1cccc(C[C@H](O)/C=C/[C@H]2[C@H](O)CC(=O)[C@@H]2CCSCCCC(=O)OC)c1` [Example 1, (11α,13E,15α)-9-oxo-11,15-Dihydroxy-16-(3-methoxymethylphenyl)-17,18,19,20-tetranor-5-thiaprost-13-enoic Acid·Methyl Ester] displayed a maximum tolerance dose of at least 30 mg/kg body weight.

For the compound `COCc1cccc(C[C@H](O)/C=C/[C@@H]2[C@@H](CCSCCCC(=O)O)[C@H](Cl)C[C@H]2O)c1` [3 (2), (9β,11α,13E,15α)-9-Chloro-11,15-dihydroxy-16-(3-methoxymethylphenyl)-17,18,19,20-tetranor-5-thiaprost-13-enoic Acid], the Ki at mouse EP1 was over 10000 nM; at mouse EP4, 7.9 nM; at EP3α it was over 10000 nM.

Turning to `COCc1cccc(C[C@H](O)/C=C/[C@H]2[C@H](O)CC(=O)[C@@H]2CCSCCCC(=O)O)c1` [Example 3, (11α,13E,15α)-9-oxo-11,15-Dihydroxy-16-(3-methoxymethylphenyl)-17,18,19,20-tetranor-5-thiaprost-13-enoic Acid], the Ki at mouse EP1 was over 10000 nM; at mouse EP4, 3.8 nM; on EP3α, 840 nM.

Take `Cc1cc(C[C@H](O)/C=C/[C@H]2[C@H](O)CC(=O)[C@@H]2CCSCCCC(=O)O)ccc1O` [3 (1), (11α,13E,15α)-9-oxo-11,15-Dihydroxy-16-(3-methyl-4-hydroxyphenyl)-17,18,19,20-tetranor-5-thiaprost-13-enoic Acid]: the values for the Ki at mouse EP1, on mouse EP4 and on EP3α were over 10000 nM, 2.4 nM and 2900 nM, respectively.

Take `CCCOCc1cccc(C[C@H](O)/C=C/[C@H]2[C@H](O)CC(=O)[C@@H]2CCSCCCC(=O)O)c1` [3 (5), (11α,13E,15α)-9-oxo-11,15-Dihydroxy-16-(3-n-propyloxymethylphenyl)-17,18,19,20-tetranor-5-thiaprost-13-enoic Acid]: the values for the Ki on mouse EP1, at mouse EP4 and at EP3α were over 10000 nM, 15 nM and 570 nM, respectively.

With `COCc1cccc(C[C@H](O)/C=C/[C@@H]2[C@@H](CCSCCCC(=O)O)[C@H](F)C[C@H]2O)c1` [3 (3), (9β,11α,13E,15α)-9-Fluoro-11,15-dihydroxy-16-(3-methoxymethylphenyl)-17,18,19,20-tetranor-5-thiaprost-13-enoic Acid], the Ki at mouse EP1 was over 10000 nM; on mouse EP4 it was 18 nM; at EP3α, 1500 nM.

With “(11α,13E,15α)-9-oxo-11,15-Dihydroxy-16-(3-ethoxymethylphenyl)-17,18,19,20-tetranor-5-thiaprost-13-enoic Acid [3 (4)]”, the Ki at mouse EP1 is over 10000 nM; on mouse EP4, 10 nM; at EP3α, 500 nM.

The record behind these values is patent publication US6462081B1, “5-thia-ω-substituted phenyl-prostaglandin E derivatives, process for producing the same and drugs containing the same as the active ingredient” (Ono Pharmaceutical Co., Ltd., priority 1998, dated 2002).
